In brackets after ≈: the same amount, converted by molar mass.
Experiments:
Type in all cases: functional
[1] = tested on: Staphylococcus aureus; assay: Antibacterial activity against Staphylococcus aureus UC 9218
[2] = tested on: Staphylococcus aureus; assay: Antibacterial activity against Staphylococcus aureus UC 9218 in presence of 10% human serum
[3] = tested on: Streptococcus pneumoniae; assay: Antibacterial activity against Streptococcus pneumoniae UC 9912
[4] = tested on: Enterococcus faecalis; assay: Antibacterial activity against Enterococcus faecalis UC 9217
[5] = tested on: Haemophilus influenzae; assay: Antibacterial activity against Haemophilus influenzae 30063
[6] = tested on: Staphylococcus epidermidis; assay: Antibacterial activity against Staphylococcus epidermidis UC 12084
[7] = tested on: Staphylococcus aureus; assay: Antibacterial activity against Staphylococcus aureus UC 9218 in presence of 5% human serum

MIC [1] [µg/mL] | MIC [2] [µg/mL] | MIC [3] [µg/mL] | MIC [4] [µg/mL] | MIC [5] [µg/mL] | MIC [6] [µg/mL] | MIC [7] [µg/mL] | Compound
0.25 (≈ 0.75 µM) | 8 | – | – | – | – | – | N#Cc1ccc(NC(=O)c2cc(-c3ccccc3)on2)c(C(=O)O)c1
64 (≈ 192 µM) | > 128 | – | – | – | – | – | N#Cc1ccc(NC(=O)c2coc(-c3ccccc3)n2)c(C(=O)O)c1
8 (≈ 22.9 µM) | 32 | – | – | – | – | – | N#Cc1ccc(NC(=O)c2nc(-c3ccccc3)cs2)c(C(=O)O)c1
0.5 (≈ 1.5 µM) | 8 | – | – | – | – | – | N#Cc1ccc(NC(=O)c2ncc(-c3ccccc3)o2)c(C(=O)O)c1
0.5 (≈ 1.5 µM) | 8 | – | – | – | – | – | N#Cc1ccc(NC(=O)c2cc(-c3ccccc3)no2)c(C(=O)O)c1
16 (≈ 25.6 µM) | – | 8 (≈ 12.8 µM) | 32 (≈ 51.1 µM) | > 128 | 16 (≈ 25.6 µM) | – | CCCN(CCC)S(=O)(=O)c1ccc(C(=O)Oc2cc3ccccc3cc2C(=O)Oc2cc3ccccc3cc2C(=O)O)cc1
4 (≈ 12 µM) | 32 | – | – | – | – | – | N#Cc1ccc(NC(=O)c2noc(-c3ccccc3)n2)c(C(=O)O)c1
8 (≈ 18.4 µM) | > 128 | – | – | – | – | – | CCOc1nc(SCc2ccccc2)ncc1C(=O)Nc1ccc(C#N)cc1C(=O)O
4 (≈ 11.5 µM) | > 128 | – | – | – | – | – | Cc1nn(-c2ccccc2)nc1C(=O)Nc1ccc(C#N)cc1C(=O)O
0.5 (≈ 1.63 µM) | 16 | – | – | – | – | – | N#Cc1ccc(NC(=O)c2noc3ccccc23)c(C(=O)O)c1
4 (≈ 12.4 µM) | 32 | – | – | – | – | – | N#Cc1ccc(NC(=O)c2cc3cccnc3s2)c(C(=O)O)c1
16 (≈ 49.8 µM) | 64 | – | – | – | – | – | Cc1coc2cnc(C(=O)Nc3ccc(C#N)cc3C(=O)O)cc12
0.5 (≈ 0.933 µM) | – | 4 (≈ 7.47 µM) | 32 (≈ 59.7 µM) | 128 (≈ 239 µM) | 4 (≈ 7.47 µM) | > 128 | O=C(Nc1ccc(Br)cc1C(=O)O)c1ccc(S(=O)(=O)N2CCc3cc(Cl)ccc32)cc1
> 128 | > 128 | – | – | – | – | – | N#Cc1ccc(NC(=O)c2cc3cc(-c4ccccc4)oc3cn2)c(C(=O)O)c1
0.125 (≈ 0.329 µM) | 4 | > 128 | > 128 | – | 0.125 (≈ 0.329 µM) | – | N#Cc1ccc(NC(=O)c2cc(SCc3ccccc3)on2)c(C(=O)O)c1
1 (≈ 2.86 µM) | 16 | – | – | – | – | – | N#Cc1ccc(NC(=O)c2ncc(-c3ccccc3)s2)c(C(=O)O)c1
0.5 (≈ 1.3 µM) | 32 | – | – | – | – | – | N#Cc1ccc(NC(=O)c2nsc(-c3ccccc3)c2Cl)c(C(=O)O)c1
128 (≈ 477 µM) | > 128 | – | – | – | – | – | N#Cc1ccc(NC(=O)c2cnccn2)c(C(=O)O)c1
2 (≈ 6.55 µM) | 32 | – | – | – | – | – | N#Cc1ccc(NC(=O)c2cc3ccccc3[nH]2)c(C(=O)O)c1
0.25 (≈ 0.773 µM) | 8 | – | – | – | – | – | N#Cc1ccc(NC(=O)c2nc3ccccc3s2)c(C(=O)O)c1
64 (≈ 137 µM) | – | 64 (≈ 137 µM) | 128 (≈ 273 µM) | > 128 | 16 (≈ 34.1 µM) | > 128 | CCCC(CCC)NS(=O)(=O)c1ccc(C(=O)Nc2cc3ccccc3cc2C(=O)O)cc1
2 (≈ 6.53 µM) | 32 | – | – | – | – | – | N#Cc1ccc(NC(=O)c2cc3ccccc3o2)c(C(=O)O)c1

Compound | MIC [1] [µg/mL] | MIC [2] [µg/mL] | MIC [3] [µg/mL] | MIC [4] [µg/mL] | MIC [5] [µg/mL] | MIC [6] [µg/mL] | MIC [7] [µg/mL]
CN[C@H](CC(C)C)C(=O)N[C@H]1C(=O)N[C@@H](CC(N)=O)C(=O)N[C@H]2C(=O)N[C@H]3C(=O)N[C@H](C(=O)N[C@H](C(=O)O)c4cc(O)cc(O)c4-c4cc3ccc4O)[C@H](O)c3ccc(c(Cl)c3)Oc3cc2cc(c3O[C@@H]2O[C@H](CO)[C@@H](O)[C@H](O)[C@H]2O[C@H]2C[C@](C)(N)[C@H](O)[C@H](C)O2)Oc2ccc(cc2Cl)[C@H]1O [VANCOMYCIN] | – | – | 0.25 (≈ 0.173 µM) | 1 (≈ 0.69 µM) | 0.015 (≈ 0.0104 µM) | – | –

— ChEMBL document CHEMBL1139189, “Preparation of novel antibacterial agents. Replacement of the central aromatic ring with heterocycles” (2007)
